Experimental data published in patent US8461141B2, “Preventive or therapeutic drug for Alzheimer-type dementia” (Mochida Pharmaceutical Co., Ltd., priority 2005, dated 2013).
Several values for one entry are separate records, joined by “and”; a condition that tells them apart may be missing. Identical values can stand only once.

Columns and labels:
[1] = system: patients diagnosed with cerebrovascular dementia; assay: Hasegawa Dementia Scale and symptom observation in patients with cerebrovascular dementia (Reference Example); type: in vivo, human; settings: for Hasegawa Dementia Scale After 2 months: individual cerebrovascular dementia patients, EPA-E alone 300 or 600 mg/day for 2 months
Method: (§1) Each patient was evaluated for the improvement of the dementia by Hasegawa Dementia Scale at the start of the test, 2 months after the start of the test (2 months from the start of administering ethyl icosapentate), and 6 months after the start of the test (4 months after the start of the combined administration of the ethyl icosapentate and the levothyroxine sodium).

[2] = system: patients diagnosed with Alzheimer-type dementia; assay: Hasegawa Dementia Scale and symptom observation in patients with Alzheimer-type dementia; type: in vivo, human; settings: for Hasegawa Dementia Scale After 2 months: individual Alzheimer-type dementia patients, EPA-E alone 300 or 600 mg/day for 2 months, scale of 30
Method: as §1

CC/C=C\C/C=C\C/C=C\C/C=C\C/C=C\CCCC(=O)OCC [EPA-E, ethyl icosapentate]
Score of the Hasegawa Dementia Scale (range) 2 months after the start of the test ([1]; 10 cerebrovascular dementia patients, EPA-E alone 300-600 mg/day): (9-15) | Score of the Hasegawa Dementia Scale (average ± standard deviation) 2 months after the start of the test ([1]; 10 cerebrovascular dementia patients, EPA-E alone 300-600 mg/day, at the start 10.4 ± 1.7): 11.2 ± 1.9 | Hasegawa Dementia Scale After 2 months ([1]; EPA-E 300 mg/day): 13 and 10 (2×) and 12 | Hasegawa Dementia Scale After 2 months ([1]; EPA-E 600 mg/day): 15 and 11 (2×) and 12 and 9 (2×) | Score of the Hasegawa Dementia Scale (range) 2 months after the start of the test ([2]; 14 Alzheimer-type dementia patients, EPA-E alone 300-600 mg/day): (7-17) | Score of the Hasegawa Dementia Scale (average ± standard deviation) 2 months after the start of the test ([2]; 14 Alzheimer-type dementia patients, EPA-E alone 300-600 mg/day, at the start 10.0 ± 3.5): 11.4 ± 3.0 | Change in the scores of the Hasegawa Dementia Scale, in words ([2]; Alzheimer-type dementia patients, sole administration of ethyl icosapentate 300 to 600 mg/day for 2 months): no substantial change | Hasegawa Dementia Scale After 2 months ([2]; EPA-E 300 mg/day): 14 and 12 and 11 and 10 and 7 and 9 | Hasegawa Dementia Scale After 2 months ([2]; EPA-E 600 mg/day): 7 and 8 and 11 (2×) and 17 and 13 and 15 and 14
